Experimental data as given in US20120288533A1, “PROTEIN-POLYSACCHARIDE CONJUGATES AND USE FOR ENCAPSULATING NUTRACEUTICALS FOR CLEAR BEVERAGE APPLICATIONS” (Technion Research and Development Foundation Ltd., priority 2011, published 2012).

Tests used:
[1] = Protection of VD against acidic pH treatment (pH 2.5, 2 hr, RT) with RPH-MD, RP-HPLC; type: physicochemical; settings: pH 2.5 for 2 hr at RT; initial VD 0.02 mg/ml, 0.5% ethanol, 0.1% w/w protein
Description: (§1) The protection conferred by the RPH-MD against HN deterioration with time was evaluated. Different shelf life conditions of temperature 4° C. or 23° C. and pH, neutral or acidic, were tested. Neutral pH conditions were obtained by a pH7 PBS. Acidic conditions for CLA were obtained by a pH 3 citric buffer. Acidic conditions (pH 2.5) for VD were obtained by addition of HCl.
(§2) Following the incubation of HN co-assembled samples under the above shelf life conditions, HN extraction was carried out. Then the HN concentration in the samples was quantified using reversed phase HPLC(RP-HPLC), 4.6×100 mm C18-C2 column, on an Akta basic HPLC system equipped with a 3 simultaneous wavelengths UV detector (GE Healthcare, Waukesha, Wis., USA). The volume of the injection loop was 100 μl, and the operation temperature was 24° C.
(§3) The concentration of the vitamin D was 0.02 mg/ml, a high dosage intended for simulating beverage concentrates, which are later diluted during bottling, but must be colloidally and chemically stable. […]
(§4) Vitamin D extraction and HPLC quantification was based on Kazmi et al^57. […] Operating conditions were: ambient temperature (24±1° C.); mobile phase was methanol: acetonitrile: water (49.5:49.5:1 v/v); flow rate was 0.3 ml/min; and the absorbance was measured at 254 nm and 228 nm.

[2] = Shelf life of VD at RT and 4° C. in pH 7 PBS with RPH-MD; type: physicochemical; settings: after 22 days of simulated shelf life at neutral pH and 4° C.; VD 0.02 mg/ml, 0.5% ethanol, 0.1% protein
Description: as §1, §2, §3, §4

[3] = Particle size distribution by DLS, RPH / RPH-MD samples with and without CLA or VD, with and without homogenization; type: physicochemical; settings: 0.5% ethanol
Description: The conjugate samples were characterized as follows. Two mg/ml (on a protein base) solutions were prepared from the dry heated samples of RPH with and without MD and compared to the unheated control. The RPH-MD powder was dissolved in a pH 7 PBS and stirred overnight for complete hydration. The samples were filtered through 0.45 μm syringe filters (polyvinylidene fluoride, Durapore filter (Millipore, Carrigtwohill, Co. Cork, Ireland).
Additionally, the HN RPH-MD co-assembled particles were analyzed at different concentrations of the VD or CLA.
The dispersion of VD with and without RPH-MD was homogenized by Micro DeBee (Bee International Inc. South Easton Mass., USA) ultra-high pressure homogenizer: process pressure: 20-25 kpsi, Orifice diameter: 0.1 mm. The sample composition was 0.1% protein, 0.5% ethanol, VD concentration 0.02 mg/ml, buffer PBS pH 7. The sample volume subjected to homogenization was 25 ml. The influence of the homogenization process on particles size was evaluated by DLS measurements performed 2 hr after the homogenization.

[4] = Simulated shelf life of CLA at RT in pH 7 PBS with RPH-MD; type: physicochemical; settings: after 14 days, neutral pH (pH 7 PBS), CLA 0.09 mg/ml, 0.5% ethanol, 1% protein
Description: as §1, §2, §3
(§5) To extract CLA, isopropanol (0.5 ml) was added to 0.5 ml sample. […] The separation of CLA was performed with a mobile phase of acetonitrile/water/acetic acid (70/30/0.12, v/v/v) at a flow rate of 1.5 ml/min and CLA was detected at 234 nm, which was found optimal in a spectrum scan (not shown).

[5] = CLA protection under acidic conditions (pH 3, 4° C.) with RPH-MD, RP-HPLC; type: physicochemical; settings: CLA 0.09 mg/ml, 0.5% ethanol, 1% protein
Description: as §1, §2, §3, §5

[6] = Simulated gastric digestion using Nile red (NR adsorption to glass, with and without pepsin); type: in vitro ADME; settings: pepsin:CN mass ratio 1:20, pH 2.5, 2 hrs at 37° C.
Description: NR stock solution in ethanol was prepared at a concentration of 0.16 mg/ml=502.6 μM. NR was added during vortexing to the conjugate, mixture or buffer solution, at a concentration of 1.3 μM, to minimize inner filtering effect in fluorescence measurements.
Free NR in aqueous solution adsorbs to the glass walls, which may serve as a convenient way to study its release behavior from nanocapsules. To examine whether NR adsorbs to glass when in water, NR was added to 1 ml of water in a glass vial to a final concentration of 1.3 μM. The vial was left for 2 hrs, then the water was transferred to a new glass vial, and 1 ml of acetone was added to the new vial. At the same time 2 ml of water:acetone (1:1 vol/vol) solution was added to the first vial. After 1 hr both solutions were read for florescence intensity at ex:570, em:645 which is the intensity peak at water:acetone 1:1. Concentration was calculated from the intensity using a NR in water: acetone (1:1) calibration curve.
Then pepsin was added to some of the samples at a concentration of 0.15 mg/ml, in order to reach pepsin: CN mass ratio of 1:20 according to the method by Mandalari et al.^79. […] After 1 hr the acetone: water solution with NR which had adsorbed to the glass was read for fluorescence intensity (ex:570, em:645). NR fluorescence was measured with time to validate that no bleaching occurred during the procedure (data not shown).

**Q.** Which “residual VD” value [1] does the source give for Vitamin D3 [Vitamin D3 (VD3)] here?
**A.** 50%

**Q.** What about the “residual VD” value [2] of the same molecule?
**A.** 28%

**Q.** And the “VD particle size fraction by DLS, without homogenization” value ([3]; 0.1% protein, 0.02 mg/ml VD, pH 7 PBS)?
**A.** 100-200 nm

**Q.** With conjugated linoleic acid [CLA] as the molecule, how does the “residual percentage of CLA” value [4] read?
**A.** 0%

**Q.** And the “CLA particle size by DLS” value ([3]; CLA in PBS pH 7 or 1% protein solutions, RPH-MD value at CLA 0.05-0.015 μg/ml)?
**A.** a few hundred

**Q.** What about the “residual percentage of CLA” value ([5]; after 1 day at pH 3.0 and 4° C.) of the same molecule?
**A.** about 20%

**Q.** And the “residual percentage of CLA” value ([5]; after 4 days at pH 3.0 and 4° C.)?
**A.** ~0%

**Q.** With CCN(CC)c1ccc2nc3c4ccccc4c(=O)cc-3oc2c1 [Nile Red (NR), Nile Red] as the molecule, how does the “effect of digestion with pepsin on binding of NR (in words)” value [6] read?
**A.** did not change the binding of NR to casein peptides
